# Measurements: US4408054A, “Oximes of 4-benzoyl-piperidines” (Hoechst-Roussel Pharmaceuticals Inc., priority 1982, dated 1983)
# Test system: mice
# Experiment: phenyl-p-quinone writhing assay in mice (analgesia)
# Type: in vivo
# Details: Mus musculus, sc, read-out: ED50 (subcutaneous dose effecting an approximately 50% inhibition of writhing)
# Excerpt: The 3-(4-piperidyl)-1,2-benzisoxazoles of the present invention are useful as analgetics due to their ability to alleviate pain in mammals. […] Exptl. Biol Med., 95 729 (1957)]. Thus, for instance, the subcutaneous dose effecting an approximately 50% inhibition of writhing (ED50) in mice produced in this assay is as follows: […]
row,Compound,ED50
1,"CN1CCC(c2noc3ccccc23)CC1.Cl [3-(1-Methyl-4-piperidyl)-1,2-benzisoxazole hydrochloride]",0.415 mg/kg
2,"Cc1ccc2onc(C3CCN(C)CC3)c2c1.O=C(O)/C=C/C(=O)O [3-(1-Methyl-4-piperidyl)-5-methyl-1,2-benzisoxazole fumarate]",0.566 mg/kg
3,"Cl.c1ccc2c(C3CCNCC3)noc2c1 [3-(4-Piperidyl)-1,2-benzisoxazole hydrochloride]",0.517 mg/kg
4,"Cl.Clc1ccc2c(C3CCNCC3)noc2c1 [3-(4-Piperidyl)-6-chloro-1,2-benzisoxazole hydrochloride]",5.6 mg/kg
5,"Cl.Fc1ccc2c(C3CCNCC3)noc2c1 [3-(4-Piperidyl)-6-fluoro-1,2-benzisoxazole hydrochloride]",1.79 mg/kg
6,"CC(C)=CCN1CCC2(C)c3cc(O)ccc3CC1C2C (centres unmarked) [pentazocine, reference compound]",1.3 mg/kg
7,"CCC(=O)O[C@](Cc1ccccc1)(c1ccccc1)[C@H](C)CN(C)C [propoxyphene, reference compound]",3.9 mg/kg

# Same assay, conditions: Mus musculus, sc; mice, subcutaneous, phenyl-p-quinone writhing; read-out: ED50 (subcutaneous dose effecting an approximately 50% inhibition of writhing)
row,Compound,ED50
1,"C=CCN1CCC(c2noc3ccccc23)CC1.Cl [3-(1-Allyl-4-piperidyl)-1,2-benzisoxazole hydrochloride]",1.06 mg/kg
2,"C=CCN1CCC(c2noc3cc(F)ccc23)CC1.Cl [3-(1-Allyl-4-piperidyl)-6-fluoro-1,2-benzisoxazole hydrochloride]",0.455 mg/kg
3,"CN(C)CCCN1CCC(c2noc3ccccc23)CC1.O=C(O)/C=C/C(=O)O.O=C(O)/C=C/C(=O)O [3-[1-(3-Dimethylaminopropyl)-4-piperidyl]-1,2-benzisoxazole difumarate]",7.4 mg/kg
4,"Cl.c1ccc(CCN2CCC(c3noc4ccccc34)CC2)cc1 [3-[1-(β-Phenylethyl)-4-piperidyl]-1,2-benzisoxazole hydrochloride]",0.386 mg/kg
